Literature values as cited in US9339460B2, “Self-emulsifiable liquid florfenicol composition intended to be incorporated into the drinking water of livestock” (VIRBAC SA, priority 2007, dated 2016).

Conditions: in water

CS(=O)(=O)c1ccc([C@@H](O)[C@@H](CF)NC(=O)C(Cl)Cl)cc1 [Florfenicol]
"miscibility" of Florfenicol: 12 g/L
